Experimental data from ChEMBL document CHEMBL1201862, “PubChem BioAssay data set” (2004).
Calls of active or inactive are those of the source. Rule as the data show it, for most assays here: actives have a measured EC50 and inactives only a lower limit.

What was measured:
Cytochrome P450 3A4 = Cytochrome P450 3A4 (Homo sapiens, UniProt P08684);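 also: CYP3A4 tested as one member of a cytochrome P450 panel screen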
[1] = Trypanosoma cruzi growth suppression in host cells – NIH3T3 host cells, beta-gal luminescence, confirmation (AID 2044); type: functional, cell-based;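 also: intracellular parasites grown in NIH/3T3 mouse fibroblasts as host cells; luminescent beta-galactosidase reporter signal from transgenic T. cruzi replicating inside host cells; inhibitors lower the luminescence signal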
[2] = NIH3T3 cell viability loss – ATP luminescence, mouse fibroblasts, counter-screen, dose response (AID 2010); type: functional, cell-based;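 also: cells exposed to compound for about 90 hours before reading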
Cytochrome P450 2C9 = Cytochrome P450 2C9 (Homo sapiens, UniProt P11712)
[3] = system: Streptococcus sp. 'group A'; assay: Streptococcus pyogenes SK(-)GAS viability under kanamycin – luminescence, BacTiterGlo, confirmation, counter-screen for streptokinase expression inhibitor project, dose response (AID 1900); type: functional, organism-based
Streptococcus = assay: GAS UMAA2166 growth inhibition – luminescence, BacTiterGlo, counter-screen for streptokinase expression inhibitor project, dose response (AID 1915); type: functional, organism-based;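 also: potency for reduction of bacterial viability or growth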

Sequence of Cytochrome P450 2C9 (P11712 whole entry): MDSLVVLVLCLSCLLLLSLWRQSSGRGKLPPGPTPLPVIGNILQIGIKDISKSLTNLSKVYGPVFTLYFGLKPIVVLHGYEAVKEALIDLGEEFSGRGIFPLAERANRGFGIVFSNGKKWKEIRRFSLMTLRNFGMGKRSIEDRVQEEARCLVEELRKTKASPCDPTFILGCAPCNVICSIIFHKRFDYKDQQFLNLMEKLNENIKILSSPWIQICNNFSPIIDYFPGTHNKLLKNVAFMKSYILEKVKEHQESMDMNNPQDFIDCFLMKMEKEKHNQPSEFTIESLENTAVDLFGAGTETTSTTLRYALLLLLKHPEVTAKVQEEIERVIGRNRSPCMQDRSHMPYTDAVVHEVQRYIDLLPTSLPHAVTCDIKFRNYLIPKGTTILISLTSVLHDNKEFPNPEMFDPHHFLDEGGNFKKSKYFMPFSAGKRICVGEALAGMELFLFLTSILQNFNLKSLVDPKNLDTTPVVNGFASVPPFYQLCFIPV
Sequence of Cytochrome P450 3A4 (P08684 whole entry): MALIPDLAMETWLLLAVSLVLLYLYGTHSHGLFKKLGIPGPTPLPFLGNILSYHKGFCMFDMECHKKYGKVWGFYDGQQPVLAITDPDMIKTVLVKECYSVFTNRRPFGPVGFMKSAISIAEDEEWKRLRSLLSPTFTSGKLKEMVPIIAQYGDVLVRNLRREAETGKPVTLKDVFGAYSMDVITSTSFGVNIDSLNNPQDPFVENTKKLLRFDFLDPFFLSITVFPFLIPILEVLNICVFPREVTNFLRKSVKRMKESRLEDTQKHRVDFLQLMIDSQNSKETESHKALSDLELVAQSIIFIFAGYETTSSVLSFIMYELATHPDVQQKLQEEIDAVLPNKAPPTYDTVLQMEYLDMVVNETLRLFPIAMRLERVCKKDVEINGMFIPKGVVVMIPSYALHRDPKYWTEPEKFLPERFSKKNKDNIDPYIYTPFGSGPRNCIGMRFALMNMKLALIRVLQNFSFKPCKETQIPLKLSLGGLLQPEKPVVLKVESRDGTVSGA

Row | Structure (SMILES) | AC50 (Cytochrome P450 3A4) | EC50 [1] | EC50 [2] | also measured
1 | C[N+](C)(CCCCCC[N+](C)(C)CCCN1C(=O)c2cccc3cccc(c23)C1=O)CCCN1C(=O)c2cccc3cccc(c23)C1=O | 2.51 µM (inconclusive) |  |  | 
2 | CC(=O)c1ccc(N2CCN(C(=O)c3ccc(Cn4c(=S)[nH]c5ccc(N6CCOCC6)cc5c4=O)cc3)CC2)cc1 |  | 1.07 µM (active) | > 60 µM (not active) | 
3 | Cc1ccc(OCCNC(=O)c2cncc(Br)c2)cc1C |  |  |  | AC50 (Cytochrome P450 2C9): 25.1 µM (inconclusive)
4 | COCCNc1nc(-c2ccoc2)nc2ccccc12 | 12.6 µM (inconclusive) |  |  | 
5 | C=CCOc1c(Br)cc(CNCCCN2CCOCC2)cc1OC |  | 0.521 µM (active) | 22.9 µM (active) | 
6 | Fc1ccc(C2=Nn3c(Cc4ccccc4F)nnc3SC2)cc1 | 12.6 µM (inconclusive) |  |  | AC50 (Cytochrome P450 2C9): 2 µM (inconclusive)
7 | COc1ccc(-n2c(=O)c(CCc3ccccc3)nc3cnc(N4CCN(C)CC4)nc32)cc1 | 12.6 µM (inconclusive) |  |  | 
8 | CCN(CC)CCN(C(=O)c1ccc2c(c1)CCCC2)c1nc2ccc(F)cc2s1 |  | 0.818 µM (active) | > 60 µM (not active) | 
9 | CC(=O)N1CCc2cc(Br)cc(S(=O)(=O)N3CCN(C(=O)c4ccco4)CC3)c21 | 15.8 µM (inconclusive) |  |  | 
10 | COC(=O)c1ccc(C2Nc3cccc4cccc(c34)N2)cc1 |  | 6.1 µM (active) | > 60 µM (not active) | 
11 | CN(CCc1ccccn1)Cc1ccc(Cl)cc1 |  | 0.221 µM (active) | > 60 µM (not active) | 
12 | O=C(COc1ccccc1)NC(=S)Nc1ccc2c(c1)Cc1ccccc1-2 |  | 0.641 µM (active) | > 60 µM (not active) | 
13 | Fc1ccccc1Cc1noc(CN2CCN(C/C=C/c3ccccc3)CC2)n1 |  | 0.443 µM (active) | > 60 µM (inconclusive) | 
14 | O=C(CC1C(=O)NCCN1C(=S)Nc1ccccc1)Nc1ccc2c(c1)OCCO2 (stereo not drawn) | 25.1 µM (inconclusive) |  |  | AC50 (Cytochrome P450 2C9): 35.5 µM (inconclusive)
15 | O=C1CC(SC(=Nc2ccccc2)Nc2ccccc2)C(=O)N1c1ccc(Cl)c(Cl)c1 (stereo not drawn) |  | 2.06 µM (active) | > 60 µM (inconclusive) | 
16 | Cc1nc2ccccn2c1C(=O)C1=C(O)C(=O)N(CCCn2ccnc2)C1c1ccncc1 (stereo not drawn) |  |  |  | AC50 (Cytochrome P450 2C9): 11.2 µM (inconclusive)
17 | Cc1ccc(S(=O)(=O)NCC(c2cccnc2)N2CCN(Cc3ccccc3)CC2)cc1 (stereo not drawn) |  | 0.732 µM (active) | > 60 µM (not active) | 
18 | CCNc1nc(Sc2ccc(C)cc2)cc(C(F)(F)F)n1 | 22.4 µM (inconclusive) |  |  | 
19 | CCC(c1nnnn1CS(=O)(=O)c1ccc(C)cc1)N1CCN(c2nc3ccccc3s2)CC1 (stereo not drawn) |  | 0.861 µM (active) | > 30 µM (not active) | 
20 | CC[C@H](Cc1c(I)cc(I)c(N)c1I)C(=O)O |  |  |  | AC50 (Cytochrome P450 2C9): 6.31 µM (inconclusive)
21 | COc1ccc(N2CCN(C(=O)c3ccc(Cn4c(=S)[nH]c5ccc(N6CCOCC6)cc5c4=O)cc3)CC2)cc1 |  | 0.684 µM (active) | > 30 µM (not active) | 
22 | C=CCNCCOCCOc1ccc(C)cc1Br |  | 3.36 µM (active) | > 60 µM (not active) | 
23 | CCOc1ccc(C(CC(=O)O)NC(=O)COc2ccccc2)cc1 (stereo not drawn) |  |  |  | AC50 (Cytochrome P450 2C9): 39.8 µM (inconclusive)
24 | CC(COc1cccc2ccccc12)CN1CCN(C)CC1 (stereo not drawn) |  | 0.284 µM (active) | > 30 µM (not active) | 

Row | Structure (SMILES) | AC50 (Cytochrome P450 3A4) | EC50 [1] | EC50 [2] | also measured
25 | CCOC(=O)C1CCCN(C/C=C/c2ccccc2[N+](=O)[O-])C1 (stereo not drawn) | 25.1 µM (inconclusive) |  |  | AC50 (Cytochrome P450 2C9): 15.8 µM (inconclusive)
26 | CCCCn1c(=O)c(C(=O)Nc2ccccn2)c(O)c2ccccc21 |  |  |  | EC50 [3]: 3.64 µM (active); EC50 (Streptococcus): 19.2 µM (active)
27 | COc1cccc(CN2CCN(Cc3c(C)nn(C(C)C)c3C)CC2CCO)c1 (stereo not drawn) |  | 1.14 µM (active) | > 60 µM (not active) | 
28 | CC(C)c1cccc(OCCCCN(C)C)c1 |  | 0.587 µM (active) | > 60 µM (not active) | 
29 | CC(C)NC(=O)N1CC[C@@]2(CCCN(S(=O)(=O)c3ccccc3)C2)C1 | 20 µM (inconclusive) |  |  | 
30 | COc1c(C)cc(Br)cc1C(=O)Nc1ccc(Cc2ccncc2)cc1 |  | 2.16 µM (active) | > 60 µM (not active) | 
31 | CCOc1ccc(-c2nnc3n2N=C(c2ccc(OC)cc2)CS3)cc1 |  |  |  | AC50 (Cytochrome P450 2C9): 2.51 µM (inconclusive)
32 | COc1ccc(/C=C/C(=O)NC(=S)NNC(=O)c2cc(OC)c(OC)c(OC)c2)cc1 |  |  |  | EC50 [3]: 1.38 µM (active); EC50 (Streptococcus): 3.48 µM (active)
33 | Cc1nn(CC(N)=O)c(=O)c2ccccc12 |  | 0.903 µM (active) | > 30 µM (not active) | 
34 | Cc1cnc(CNc2ccnc(-c3ccc(N(C)C)cc3)n2)cn1 | 10 µM (inconclusive) |  |  | 
35 | CCCCn1c2ccc(F)cc2c2nnc(SCCN3CCCCC3)nc21 |  | 0.681 µM (active) | > 60 µM (not active) | 
36 | O=C(NCC1CCCO1)C(c1cccs1)N(Cc1ccccc1Cl)C(=O)c1ccc(-c2ccccc2)[nH]1 (stereo not drawn) |  | 2.96 µM (active) | > 30 µM (not active) | 
37 | CCOC(=O)N(c1ccccc1)P1(=S)OCCO1 |  |  |  | AC50 (Cytochrome P450 2C9): 0.0355 µM (inconclusive)
38 | COc1ccc(C(=O)C2CCCN(Cc3cccc4c3OCO4)C2)cc1OC (stereo not drawn) |  | 0.576 µM (active) | 12.4 µM (active) | 
39 | O=C(NC1CCCC1)c1cnn2c(C(F)(F)F)cc(-c3ccco3)nc12 |  |  |  | AC50 (Cytochrome P450 2C9): 22.4 µM (inconclusive)
40 | O=C(Nc1nc(-c2ccc(F)cc2)cs1)C1CCN(C(=O)c2ccc(F)cc2)CC1 |  | 4.57 µM (active) | > 60 µM (not active) | 
41 | O=c1c(-c2ccc(F)c(F)c2)nc2cncnc2n1Cc1ccccc1Cl | 12.6 µM (inconclusive) |  |  | 
42 | Cn1c(=O)c2c(nc(N3CCN(c4ccccn4)CC3)n2Cc2ccccc2Cl)n(C)c1=O | 1.26 µM (inconclusive) |  |  | 
43 | CCOc1ccc2nc(N3CCCCCC3)sc2c1 | 35.5 µM (inconclusive) |  |  | AC50 (Cytochrome P450 2C9): 12.6 µM (inconclusive)
44 | O=C(c1cc(-c2cccs2)on1)N1CCN(c2ccc(F)cc2)CC1 | 20 µM (inconclusive) |  |  | 
45 | Cc1cc2ccccn2c1C(=O)c1nc(N2CCOCC2)ncc1Cl | 28.2 µM (inconclusive) |  |  | AC50 (Cytochrome P450 2C9): 39.8 µM (inconclusive)
46 | O=c1c(-c2cccs2)nc2cnc(N3CCOCC3)nc2n1-c1ccccc1 | 7.94 µM (inconclusive) |  |  | AC50 (Cytochrome P450 2C9): 10 µM (inconclusive)
47 | Cc1ccc(SCCN2CCN(C)CC2)cc1 |  | 0.852 µM (active) | 10.3 µM (active) | 
48 | COc1cc(S(=O)(=O)N2CCC(O)(c3cccc(C(F)(F)F)c3)CC2)ccc1-n1cnnn1 |  | 2.61 µM (active) | > 60 µM (not active) | 

Row | Structure (SMILES) | AC50 (Cytochrome P450 3A4) | EC50 [1] | EC50 [2] | also measured
49 | CCO/C(O)=C/C1=NC2(CCCCC2)Cc2cc(OC)c(OC)cc21 |  | 2.2 µM (active) | > 60 µM (not active) | 
50 | COC(=O)N1CCC2(CCCN(c3ccc(-c4ccccc4)cc3)C2)CC1 | 39.8 µM (inconclusive) |  |  | 
51 | Cc1cnc2cc(Cl)ccc2c1SCC(=O)O | 3.98 µM (inconclusive) |  |  | 
52 | COc1cc(OC)c(C2C(C(=O)Nc3ccc(C)cc3C)=C(C)Nc3ncnn32)cc1OC (stereo not drawn) |  |  |  | AC50 (Cytochrome P450 2C9): 15.8 µM (inconclusive)
53 | Cc1oc(-c2cccc(Cl)c2)nc1CN1CCCC(C(=O)NCCCN2CCOCC2)C1 (stereo not drawn) |  | 0.234 µM (active) | > 60 µM (not active) | 
54 | CCN(CC)P(=O)(Nc1ccccc1Br)c1ccc(N(C)C)cc1NC(=O)c1ccco1 (stereo not drawn) |  | 1.95 µM (active) | > 60 µM (not active) | 
55 | N#CC(C(=O)OC1CCCCC1)c1nc2ccccc2nc1N1CCCCC1 (stereo not drawn) |  | 1.01 µM (active) | 8.74 µM (active) | 
56 | Cc1nc2cnc(OCc3ccccc3)nc2n(CCC#N)c1=O | 3.98 µM (inconclusive) |  |  | 
57 | O=C(c1csnn1)N1CCC2(CC1)CN(Cc1ccncc1)C2 | 15.8 µM (inconclusive) |  |  | 
58 | CCNc1ncc2nc(-c3ccccc3)c(=O)n(CCC#N)c2n1 | 25.1 µM (inconclusive) |  |  | 
59 | O=C1C2C(c3ccccc3)CC=CC2[C@H](c2cccc([N+](=O)[O-])c2)N1Cc1ccccc1 (stereo partly drawn) |  | 2.17 µM (active) | > 60 µM (not active) | 
60 | COc1ccccc1CNc1ncncc1-c1ccccc1C | 0.398 µM (inconclusive) |  |  | 
61 | CC(C)OC(=O)c1cn(-c2ccccc2)nc1-c1ccco1 |  | 1.61 µM (active) | 31.6 µM (active) | 
62 | CCC(C)Nc1c([N+](=O)[O-])cc(C)cc1[N+](=O)[O-] (stereo not drawn) | 25.1 µM (inconclusive) |  |  | AC50 (Cytochrome P450 2C9): 15.8 µM (inconclusive)
63 | CCCCCCCCCCCCCCCCCCNC(=O)OC[C@@H](COP(=O)([O-])OCC[n+]1ccsc1)OC |  |  |  | AC50 (Cytochrome P450 2C9): 39.8 µM (inconclusive)
64 | CSc1cc2c(cc1C(F)(F)F)N(C(=O)Nc1cccnc1)CC2 | 3.98 µM (inconclusive) |  |  | 
65 | C/C(=N\OC(=O)NC(C)C)c1sc(-c2ccccc2)nc1C | 25.1 µM (inconclusive) |  |  | AC50 (Cytochrome P450 2C9): 11.2 µM (inconclusive)
66 | Cc1nn(Cc2ccc(F)cc2)c(Cl)c1/C=N/NC(=O)c1ccccc1 |  | 2.67 µM (active) | > 60 µM (not active) | 
67 | O=C(N/N=C\c1cccc(F)c1)c1ccc(Cn2cc(Br)c([N+](=O)[O-])n2)o1 |  | 0.889 µM (active) | > 60 µM (not active) | 
68 | Nc1c(S(=O)(=O)O)cc(Nc2cccc(S(N)(=O)=O)c2)c2c1C(=O)c1ccccc1C2=O | 7.94 µM (inconclusive) |  |  | 
69 | CN1/C(=C/c2cccc[n+]2C)Sc2ccccc21 |  | 0.185 µM (active) | > 60 µM (not active) | 
70 | CCOC(=O)CCC(=O)O[C@H]1[C@H](O[C@@H]2[C@@H](C)[C@H](O[C@H]3C[C@@](C)(OC)[C@@H](O)[C@H](C)O3)[C@@H](C)C(=O)O[C@H](CC)[C@@](C)(O)[C@H](O)[C@@H](C)C(=O)[C@H](C)C[C@@]2(C)O)O[C@H](C)C[C@@H]1N(C)C [ERYTHROMYCIN ETHYLSUCCINATE] |  |  |  | EC50 [3]: < 0.06 µM (active); EC50 (Streptococcus): < 0.06 µM (active)
